# According to US20260108483A1, “METHODS AND COMPOSITIONS FOR PREVENTING THE PROGRESSION OF DIABETIC RETINOPATHY AND RELATED CONDITIONS” (Opus Genetics, Inc., priority 2023, published 2026):
# Test system: diabetic retinopathy (moderately severe to severe NPDR or mild PDR)
# Assay: Phase 2 placebo-controlled clinical study: three or more step worsening in binocular Diabetic Retinopathy Severity Scale Score
# Format: in vivo, human
# Settings: weeks 12 and 24; 600 mg/day oral (3+2 tablets of 120 mg) vs placebo
# Text: Ability of Compound 1 to prevent the progression of non-proliferative diabetic retinopathy (NPDR) and mild proliferative diabetic retinopathy (PDR) may be evaluated according to a clinical study in which Compound 1 was orally administered to patients suffering from non-proliferative diabetic retinopathy or mild proliferative diabetic retinopathy. Compound 1 has the chemical name (E)-2-((4,5-dimethoxy-2-methyl-3,6-dioxocyclohexa-1,4-dien-1-yl)methylene)undecanoic acid, and is depicted by the following chemical formula: The study was configured as a placebo-controlled, double-masked, randomized, Phase 2 study in approximately 100 subjects with moderately severe to severe NPDR (diabetic retinopathy severity score [DRSS] Level 47 or 53, see FIG. 1) or mild PDR (DRSS Level 61), evaluating safety and efficacy following administration of Compound 1 twice daily for 24 weeks. The study was configured for a 1:1 randomization (placebo: Compound 1). Randomization was stratified by level of disease severity (NPDR or PDR). Subjects with mild PDR were capped at 20% for each arm. Efficacy evaluations at 12 and/or 24 weeks included DRSS, center-involved diabetic macular edema (DME), moderate PDR or PDR-related adverse events (AEs), best-corrected visual acuity (BCVA), and central subfield thickness (CST). Further experimental procedures and results are described below. […]
smiles,measurement,value
"CCCCCCCCC/C(=C\C1=C(C)C(=O)C(OC)=C(OC)C1=O)C(=O)O [Compound 1, (E)-2-((4,5-dimethoxy-2-methyl-3,6-dioxocyclohexa-1,4-dien-1-yl)methylene)undecanoic acid]","preventing the progression of diabetic retinopathy (patients with three or more step worsening in binocular DRSS, FIG. 3)",effective in preventing the progression of diabetic retinopathy
